Source: ChEMBL document CHEMBL1201862, “PubChem BioAssay data set” (2004)
Activity calls are given as the source filed them.

How the values were obtained:
[1] = microbe, parasite or virus in culture; assay type: functional; conditions: Mycobacterium tuberculosis
[2] = HeLa 2N DNA content increase, dose response, cell-based, IC50 (AID 1117349); assay type: functional
[3] = HeLa 4N DNA content increase, dose response, cell-based, IC50 (AID 1117351); assay type: functional
[4] = biological target: T1, Hepatocyte nuclear factor 4-alpha (Homo sapiens, UniProt P41235); assay type: functional, cell-based;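 note: biochemical luminescence-based dose-response counterscreen measuring inhibition of HNF4 dimerization, run alongside a screen for blockers of ABHD5–perilipin-5 interaction; split luciferase complementation of HNF4 fusion proteins in cell lysate measuring dimerization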
T1 sequence (P41235 whole entry): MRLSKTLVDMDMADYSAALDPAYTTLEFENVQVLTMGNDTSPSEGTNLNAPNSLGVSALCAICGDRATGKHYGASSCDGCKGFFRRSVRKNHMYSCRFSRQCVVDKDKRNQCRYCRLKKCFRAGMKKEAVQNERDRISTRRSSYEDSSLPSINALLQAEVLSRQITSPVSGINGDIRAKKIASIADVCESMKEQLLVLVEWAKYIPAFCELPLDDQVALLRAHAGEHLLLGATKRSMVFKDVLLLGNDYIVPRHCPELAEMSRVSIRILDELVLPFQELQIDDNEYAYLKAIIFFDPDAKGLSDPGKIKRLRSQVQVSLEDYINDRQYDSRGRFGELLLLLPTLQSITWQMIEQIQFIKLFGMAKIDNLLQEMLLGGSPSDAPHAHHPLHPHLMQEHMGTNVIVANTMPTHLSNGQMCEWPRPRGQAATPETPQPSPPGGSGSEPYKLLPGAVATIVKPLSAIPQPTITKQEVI

cells [5] = assay type: functional, cell-based
cells [6] = assay type: functional, cell-based; remark: listed apart in the source
[7] = biological target: T2, Trace amine-associated receptor 1 (Homo sapiens, UniProt Q96RJ0); test: Counterscreen for agonists of the human trace amine associated receptor 1 (hTAAR1): Fluorescence-based cell-based high throughput dose response assay to identify hTAAR1 agonist that also desensitize TAAR1 receptor response.; assay type: functional
T2 sequence (Q96RJ0 whole entry): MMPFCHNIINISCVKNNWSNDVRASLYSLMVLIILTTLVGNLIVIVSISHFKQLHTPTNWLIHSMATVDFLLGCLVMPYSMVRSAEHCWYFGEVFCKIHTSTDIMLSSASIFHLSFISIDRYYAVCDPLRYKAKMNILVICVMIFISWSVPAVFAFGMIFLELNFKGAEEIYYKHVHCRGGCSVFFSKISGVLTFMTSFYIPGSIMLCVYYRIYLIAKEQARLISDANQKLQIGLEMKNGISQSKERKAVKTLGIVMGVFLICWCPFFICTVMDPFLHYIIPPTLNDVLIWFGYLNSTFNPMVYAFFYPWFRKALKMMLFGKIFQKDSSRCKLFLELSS

[8] = biological target: T2, Trace amine-associated receptor 1; test: Fluorescence-based cell-based high throughput dose response assay to identify agonists of the human trace amine associated receptor 1 (TAAR1).; assay type: functional
[9] = biological target: T3, Rac GTPase-activating protein 1 (Homo sapiens, UniProt Q9H0H5); test: MgcRacGAP GTPase-activating activity inhibitors, confirmation, biochemical, ADP Hunter fluorescence, primary and confirmatory (AID 624330); assay type: functional
T3 sequence (Q9H0H5 whole entry): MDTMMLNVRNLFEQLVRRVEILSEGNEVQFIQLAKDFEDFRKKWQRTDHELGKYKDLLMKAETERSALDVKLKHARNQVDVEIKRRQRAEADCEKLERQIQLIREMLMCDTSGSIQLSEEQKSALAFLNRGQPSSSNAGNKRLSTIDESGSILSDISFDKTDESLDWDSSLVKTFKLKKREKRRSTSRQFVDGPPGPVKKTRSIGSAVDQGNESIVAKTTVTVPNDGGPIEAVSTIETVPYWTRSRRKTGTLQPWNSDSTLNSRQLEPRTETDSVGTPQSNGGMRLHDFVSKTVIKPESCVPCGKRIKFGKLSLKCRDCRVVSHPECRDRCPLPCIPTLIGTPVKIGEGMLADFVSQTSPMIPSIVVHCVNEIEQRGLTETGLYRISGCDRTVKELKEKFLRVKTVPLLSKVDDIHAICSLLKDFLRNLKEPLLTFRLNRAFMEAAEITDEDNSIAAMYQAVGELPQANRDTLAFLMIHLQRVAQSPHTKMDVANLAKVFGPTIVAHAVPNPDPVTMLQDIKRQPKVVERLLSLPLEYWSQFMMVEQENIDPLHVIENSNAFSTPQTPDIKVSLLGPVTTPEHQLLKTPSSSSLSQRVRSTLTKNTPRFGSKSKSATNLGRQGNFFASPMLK

Large T antigen = Large T antigen (Simian virus 40, UniProt P03070); assay type: functional, Betapolyomavirus macacae;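 note: Confirmatory-stage PubChem screen for compounds that inhibit SV40 T antigen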
[10] = HEp-2 cell cytotoxicity, dose response, cytotoxicity control for RSV inhibitor project, HTS (AID 2410); assay type: functional; conditions: human respiratory syncytial virus
[11] = biological target: Voltage-dependent T-type calcium channel subunit alpha-1H (Homo sapiens, UniProt O95180); assay type: functional;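 note: channel activity triggered by adding a high calcium stimulation buffer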
[12] = biological target: Protein-tyrosine kinase 2-beta (Homo sapiens, UniProt Q14289);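 note: potency of inhibitors of PYK2 kinase phosphorylation of poly-GT substrate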
[13] = cytotoxicity in HEK-293T cells, dose response, cytotoxicity control for BCR NF-kB inhibitor project, luminescence, B-cell screen hits (AID 489021); assay type: functional, cell-based;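 note: HEK-293T cells carrying an NF-kB luciferase reporter; cells exposed to compound for about 14 hours before viability readout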
[14] = biological target: Peroxisome proliferator-activated receptor gamma/Nuclear receptor coactivator 3 (Homo sapiens, UniProt P37231); test: (§1) TR-FRET dose response biochemical High Throughput Screening assay for agonists of the steroid receptor coactivator 3 (SRC-3) recruitment by the peroxisome proliferator-activated receptor gamma (PPAR gamma): non-selective agonists. [Related pubchem assays: 1301 (Confirmation screen.), 1048 (Primary screen.)]; assay type: functional
[15] = biological target: Peroxisome proliferator-activated receptor gamma/Nuclear receptor coactivator 1 (Homo sapiens, UniProt P37231); test: as §1, with “1 (SRC-1)” for “3 (SRC-3)”, “assays (depositor defined):AID1300, AID1808, AID504735, AID631]” for “assays: 1301 (Confirmation screen.), 1048 (Primary screen.)]”; assay type: protein assay
[16] = biological target: Peroxisome proliferator-activated receptor gamma/Nuclear receptor coactivator 2 (Homo sapiens, UniProt P37231); test: TR-FRET dose response biochemical High Throughput Screening assay for agonists of the steroid receptor coactivator 2 (SRC-2) recruitment by the peroxisome proliferator-activated receptor gamma (PPAR gamma): non-selective agonists. [Related pubchem assays: 1297, 1032 ]; assay type: functional
Cytochrome P450 2C19 = Cytochrome P450 2C19 (Homo sapiens, UniProt P33261); test: Cytochrome panel assay with activity outcomes. Panel member name: p450-cyp2c19 Compounds with AC50 equal or less than 10 uM are considered active; assay type: functional
cells [17] = assay type: functional, cell-based; remark: listed apart in the source
cells [18] = assay type: functional, cell-based; remark: listed apart in the source
Coagulation factor XII = biological target: T4, Coagulation factor XII (Homo sapiens, UniProt P00748); assay type: functional;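 note: activated factor XIIa alpha cleaving a fluorogenic AMC peptide substrate; inhibitor potency from loss of enzyme activity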
T4 sequence (P00748 whole entry): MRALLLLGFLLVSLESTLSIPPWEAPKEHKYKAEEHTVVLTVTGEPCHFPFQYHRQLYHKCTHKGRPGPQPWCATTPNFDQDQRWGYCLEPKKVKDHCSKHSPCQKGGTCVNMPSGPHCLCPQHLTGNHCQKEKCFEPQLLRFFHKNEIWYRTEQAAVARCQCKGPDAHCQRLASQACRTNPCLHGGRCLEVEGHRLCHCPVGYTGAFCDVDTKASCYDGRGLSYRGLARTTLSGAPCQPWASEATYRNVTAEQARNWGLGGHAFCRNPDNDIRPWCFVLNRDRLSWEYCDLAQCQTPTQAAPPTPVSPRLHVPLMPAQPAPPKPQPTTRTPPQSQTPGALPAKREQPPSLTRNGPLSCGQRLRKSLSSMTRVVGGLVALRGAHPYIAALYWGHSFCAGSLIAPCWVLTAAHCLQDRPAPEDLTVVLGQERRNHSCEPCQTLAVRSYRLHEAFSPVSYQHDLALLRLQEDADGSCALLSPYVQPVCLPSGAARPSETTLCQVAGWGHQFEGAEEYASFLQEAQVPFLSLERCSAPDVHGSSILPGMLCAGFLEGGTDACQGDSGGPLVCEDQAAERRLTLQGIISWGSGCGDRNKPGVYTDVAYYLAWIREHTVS

Estrogen receptor beta = Estrogen receptor beta (Homo sapiens, UniProt Q92731);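 note: recombinant ER-beta bound to coactivator SRC1 peptide in presence of estradiol agonist; inhibitors block coactivator peptide binding and lower the FRET signal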
Streptococcus = test: Group A Streptococcus viability loss, dose response, counter-screen for streptokinase expression inhibitor project, luminescence, BacTiterGlo (AID 1915); assay type: functional, organism-based;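 note: potency for reduction of bacterial viability or growth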
INS1 = test: beta cell apoptosis inhibitors, cytokine rescue, dose response, luminescence, retest (AID 449756); assay type: functional, cell-based; conditions: Rattus norvegicus;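 note: cell death triggered by IL-1 beta plus TNF-alpha plus IFN-gamma mixture; protective hits raise ATP signal compared with cytokine alone wells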
[19] = system: Streptococcus sp. 'group A'; test: growth inhibition of control SK(-) GAS strain, dose response, counter-screen for streptokinase expression inhibitor project, luminescence, kanamycin, BacTiterGlo, confirmation (AID 1900); assay type: functional, organism-based

Sequence of Voltage-dependent T-type calcium channel subunit alpha-1H (O95180 whole entry): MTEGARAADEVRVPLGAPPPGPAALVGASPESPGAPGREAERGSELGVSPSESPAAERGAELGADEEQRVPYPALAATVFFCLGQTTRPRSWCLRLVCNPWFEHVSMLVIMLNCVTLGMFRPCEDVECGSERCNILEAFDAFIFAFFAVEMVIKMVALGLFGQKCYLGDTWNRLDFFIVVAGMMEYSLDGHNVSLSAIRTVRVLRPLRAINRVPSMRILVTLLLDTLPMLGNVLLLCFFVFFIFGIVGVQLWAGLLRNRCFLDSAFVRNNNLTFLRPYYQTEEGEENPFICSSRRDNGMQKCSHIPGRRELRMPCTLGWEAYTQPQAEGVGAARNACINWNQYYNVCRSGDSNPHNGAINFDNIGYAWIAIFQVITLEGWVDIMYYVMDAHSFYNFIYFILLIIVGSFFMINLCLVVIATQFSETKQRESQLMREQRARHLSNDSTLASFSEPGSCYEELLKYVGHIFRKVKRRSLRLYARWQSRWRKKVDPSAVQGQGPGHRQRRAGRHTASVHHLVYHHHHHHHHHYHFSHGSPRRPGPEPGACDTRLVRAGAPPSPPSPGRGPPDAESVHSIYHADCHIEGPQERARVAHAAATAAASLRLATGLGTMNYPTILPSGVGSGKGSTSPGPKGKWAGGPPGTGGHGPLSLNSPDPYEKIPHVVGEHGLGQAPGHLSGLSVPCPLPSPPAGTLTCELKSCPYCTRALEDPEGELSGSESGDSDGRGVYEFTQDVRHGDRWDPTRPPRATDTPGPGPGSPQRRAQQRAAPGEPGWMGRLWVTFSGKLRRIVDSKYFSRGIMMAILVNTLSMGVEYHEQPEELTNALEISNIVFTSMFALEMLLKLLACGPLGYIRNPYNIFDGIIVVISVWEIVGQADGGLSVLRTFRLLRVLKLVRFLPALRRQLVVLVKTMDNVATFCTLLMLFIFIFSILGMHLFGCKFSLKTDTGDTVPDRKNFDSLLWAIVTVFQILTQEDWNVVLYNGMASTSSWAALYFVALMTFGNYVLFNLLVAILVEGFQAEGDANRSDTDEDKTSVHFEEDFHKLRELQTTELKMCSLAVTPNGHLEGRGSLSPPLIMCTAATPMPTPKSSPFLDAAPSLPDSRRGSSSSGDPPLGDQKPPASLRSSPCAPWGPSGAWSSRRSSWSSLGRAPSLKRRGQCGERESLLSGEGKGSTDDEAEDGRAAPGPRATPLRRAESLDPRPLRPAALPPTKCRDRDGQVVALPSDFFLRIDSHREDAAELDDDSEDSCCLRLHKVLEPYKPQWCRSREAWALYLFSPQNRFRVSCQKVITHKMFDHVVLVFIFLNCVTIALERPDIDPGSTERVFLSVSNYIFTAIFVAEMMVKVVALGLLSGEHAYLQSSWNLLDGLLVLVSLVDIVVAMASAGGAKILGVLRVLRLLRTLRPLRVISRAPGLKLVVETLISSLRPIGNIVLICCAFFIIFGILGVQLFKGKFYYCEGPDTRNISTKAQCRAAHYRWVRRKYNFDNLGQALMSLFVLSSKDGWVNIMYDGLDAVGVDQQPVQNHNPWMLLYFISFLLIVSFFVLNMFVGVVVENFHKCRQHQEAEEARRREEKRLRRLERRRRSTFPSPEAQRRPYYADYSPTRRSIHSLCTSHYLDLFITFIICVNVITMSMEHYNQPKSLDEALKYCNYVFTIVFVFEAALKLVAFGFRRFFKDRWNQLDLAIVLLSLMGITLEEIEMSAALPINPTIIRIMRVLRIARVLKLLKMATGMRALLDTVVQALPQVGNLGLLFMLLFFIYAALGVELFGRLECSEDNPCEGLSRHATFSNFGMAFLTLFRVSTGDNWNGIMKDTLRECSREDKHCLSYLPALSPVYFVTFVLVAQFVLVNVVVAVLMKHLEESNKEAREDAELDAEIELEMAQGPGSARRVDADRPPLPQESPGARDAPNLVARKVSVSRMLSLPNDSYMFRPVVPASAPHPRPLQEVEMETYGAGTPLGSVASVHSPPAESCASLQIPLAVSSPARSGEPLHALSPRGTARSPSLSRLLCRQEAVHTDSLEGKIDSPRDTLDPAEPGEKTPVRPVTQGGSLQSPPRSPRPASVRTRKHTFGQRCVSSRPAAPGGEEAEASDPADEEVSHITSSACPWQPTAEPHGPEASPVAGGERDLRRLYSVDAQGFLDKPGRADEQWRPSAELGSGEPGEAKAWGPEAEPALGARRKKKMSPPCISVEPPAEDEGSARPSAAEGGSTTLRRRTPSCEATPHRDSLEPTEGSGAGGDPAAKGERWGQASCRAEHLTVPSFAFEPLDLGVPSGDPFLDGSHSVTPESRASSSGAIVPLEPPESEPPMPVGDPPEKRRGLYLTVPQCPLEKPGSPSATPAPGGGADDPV
Sequence of Protein-tyrosine kinase 2-beta (Q14289 whole entry): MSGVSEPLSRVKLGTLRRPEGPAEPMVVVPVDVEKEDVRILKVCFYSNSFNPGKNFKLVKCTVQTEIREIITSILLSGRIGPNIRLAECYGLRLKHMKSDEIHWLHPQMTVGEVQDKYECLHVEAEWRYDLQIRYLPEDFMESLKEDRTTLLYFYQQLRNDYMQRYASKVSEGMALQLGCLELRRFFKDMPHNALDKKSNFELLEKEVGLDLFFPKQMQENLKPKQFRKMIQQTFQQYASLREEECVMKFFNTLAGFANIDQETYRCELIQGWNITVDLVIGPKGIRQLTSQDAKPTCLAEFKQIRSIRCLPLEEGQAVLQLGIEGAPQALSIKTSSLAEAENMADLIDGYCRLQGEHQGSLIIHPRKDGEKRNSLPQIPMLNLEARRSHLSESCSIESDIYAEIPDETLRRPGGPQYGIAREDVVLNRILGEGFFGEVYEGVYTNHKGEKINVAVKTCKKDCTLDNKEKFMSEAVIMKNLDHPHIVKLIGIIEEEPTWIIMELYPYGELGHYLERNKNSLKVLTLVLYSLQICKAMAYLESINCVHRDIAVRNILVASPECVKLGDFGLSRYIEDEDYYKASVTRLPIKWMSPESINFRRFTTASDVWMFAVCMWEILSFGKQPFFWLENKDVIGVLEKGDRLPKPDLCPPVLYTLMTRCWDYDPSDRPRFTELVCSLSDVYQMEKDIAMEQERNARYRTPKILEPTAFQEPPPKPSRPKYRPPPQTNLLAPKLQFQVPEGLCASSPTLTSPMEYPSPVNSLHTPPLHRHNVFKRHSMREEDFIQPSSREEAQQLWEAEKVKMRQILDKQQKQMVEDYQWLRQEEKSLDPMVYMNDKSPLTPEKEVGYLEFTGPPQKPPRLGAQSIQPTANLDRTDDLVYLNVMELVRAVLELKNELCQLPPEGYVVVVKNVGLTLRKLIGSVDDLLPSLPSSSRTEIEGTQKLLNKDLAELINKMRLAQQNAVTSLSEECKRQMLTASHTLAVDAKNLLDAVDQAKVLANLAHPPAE
Sequence of Cytochrome P450 2C19 (P33261 whole entry): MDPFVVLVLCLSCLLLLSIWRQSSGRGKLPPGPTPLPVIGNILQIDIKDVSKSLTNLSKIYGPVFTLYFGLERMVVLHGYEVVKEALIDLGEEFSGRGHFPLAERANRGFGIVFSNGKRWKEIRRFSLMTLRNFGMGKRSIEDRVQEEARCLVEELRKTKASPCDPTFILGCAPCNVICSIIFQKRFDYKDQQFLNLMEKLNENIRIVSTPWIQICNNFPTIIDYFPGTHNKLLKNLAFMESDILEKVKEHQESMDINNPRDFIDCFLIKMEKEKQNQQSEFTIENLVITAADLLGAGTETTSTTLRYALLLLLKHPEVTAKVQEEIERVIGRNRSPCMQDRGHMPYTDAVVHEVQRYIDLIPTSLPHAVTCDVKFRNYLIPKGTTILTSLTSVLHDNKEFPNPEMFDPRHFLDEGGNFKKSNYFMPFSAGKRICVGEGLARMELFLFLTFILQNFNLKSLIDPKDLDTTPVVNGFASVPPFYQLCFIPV
Sequence of Estrogen receptor beta (Q92731 whole entry): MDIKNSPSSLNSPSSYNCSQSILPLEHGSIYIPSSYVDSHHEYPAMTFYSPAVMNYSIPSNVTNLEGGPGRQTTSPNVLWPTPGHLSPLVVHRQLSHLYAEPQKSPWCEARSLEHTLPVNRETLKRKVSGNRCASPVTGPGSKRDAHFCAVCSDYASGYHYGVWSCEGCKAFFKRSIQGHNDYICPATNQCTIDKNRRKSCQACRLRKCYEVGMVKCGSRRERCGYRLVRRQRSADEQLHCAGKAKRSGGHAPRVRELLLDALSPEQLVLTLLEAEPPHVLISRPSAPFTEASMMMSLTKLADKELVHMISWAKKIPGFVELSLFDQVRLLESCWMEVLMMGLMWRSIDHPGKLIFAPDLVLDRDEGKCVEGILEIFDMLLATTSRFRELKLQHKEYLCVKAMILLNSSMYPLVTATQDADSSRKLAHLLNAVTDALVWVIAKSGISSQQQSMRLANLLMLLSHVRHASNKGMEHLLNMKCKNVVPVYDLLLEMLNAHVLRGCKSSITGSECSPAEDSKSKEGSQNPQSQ
Sequence of Large T antigen (P03070 whole entry): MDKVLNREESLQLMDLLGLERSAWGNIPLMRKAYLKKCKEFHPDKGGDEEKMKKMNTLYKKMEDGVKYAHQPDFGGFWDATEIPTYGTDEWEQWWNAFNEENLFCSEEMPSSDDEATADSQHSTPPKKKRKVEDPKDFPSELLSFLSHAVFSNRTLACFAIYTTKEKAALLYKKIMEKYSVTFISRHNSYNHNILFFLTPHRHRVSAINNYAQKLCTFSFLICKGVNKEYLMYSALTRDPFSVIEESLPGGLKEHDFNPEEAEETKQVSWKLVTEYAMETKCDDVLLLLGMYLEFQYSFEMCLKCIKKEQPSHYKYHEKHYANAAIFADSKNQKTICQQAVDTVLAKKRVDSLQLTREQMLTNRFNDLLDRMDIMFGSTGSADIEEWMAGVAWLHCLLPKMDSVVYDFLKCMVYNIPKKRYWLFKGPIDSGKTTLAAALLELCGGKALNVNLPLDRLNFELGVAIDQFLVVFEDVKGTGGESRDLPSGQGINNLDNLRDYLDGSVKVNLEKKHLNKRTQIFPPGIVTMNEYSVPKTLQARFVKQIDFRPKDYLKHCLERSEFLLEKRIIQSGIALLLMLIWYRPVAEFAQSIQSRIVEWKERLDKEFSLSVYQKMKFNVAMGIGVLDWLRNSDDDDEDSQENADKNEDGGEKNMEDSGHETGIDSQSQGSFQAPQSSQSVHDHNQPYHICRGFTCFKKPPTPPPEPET

In the case of C[C@]12CC[C@@H]3c4ccc(O)cc4CC[C@H]3[C@@H]1CC[C@@H]2OC(=O)CCC1CCCC1 [ESTRADIOL CYPIONATE], the CC50 [1] is reported as 30.6 µM (active), the IC50 [2] is reported as > 10 µM (inactive) and the IC50 [3] is reported as > 10 µM (inactive).

With COc1ccc(/C=C/C(=O)c2cc(F)ccc2OC(=O)c2ccc(OC)c(OC)c2)cc1OC the IC50 [4] was 5.27 µM (active).

For O=C(O)c1ccccc1C(=O)NCC(O)c1ccccc1 (configuration not stated), the EC50 (cells [5]) was > 29.9 µM (inactive), the IC50 (cells [6]) was > 29.9 µM (inactive) and the IC50 [7] was > 29.9 µM (inactive). The EC50 [8] was 5.05 µM (active).

For O=S(=O)(NC1=NCCCCC1)c1ccc2sc(NS(=O)(=O)c3ccc4ccccc4c3)nc2c1, the IC50 [9] was 156 µM (active), the IC50 (Large T antigen) was 39.4 µM (active) and the IC50 [4] was 9.21 µM (active).

For COc1ccc(N(C)C(=O)c2ccc3nc(-c4ccccc4)c(-c4ccccc4)nc3c2)cc1, the CC50 [10] was 12.8 µM (active) and the EC50 [11] was 3.17 µM (active).

For CN1C(=O)c2cccc3c(S(=O)(=O)NCc4ccco4)ccc1c23, the IC50 [12] was > 69.5 µM (not active).

In the case of O=C(Nc1ccc(F)cc1)Nc1ccc(Oc2ncnc3cc(Cl)ccc23)nc1, the EC50 (cells [5]) is reported as > 29.9 µM (inactive), the IC50 (cells [6]) is reported as > 29.9 µM (inactive) and the IC50 [7] is reported as 0.373 µM (active). For the same molecule, the EC50 [8] was > 29.9 µM (inactive).

For CCc1ccc2nc(Nc3nc(O)cc(COC)n3)nc(C)c2c1, the IC50 [13] was > 80 µM (inactive).

For CC(C)C(=O)Nc1ccc(NC(=O)c2ccc3c(c2)OCO3)cc1, the IC50 [13] was > 80 µM (inactive).

In the case of CCn1c(=O)cc(SCC(=O)N2CCC(C)CC2)c2ccccc21, the IC50 [13] is reported as > 80 µM (inactive), the EC50 [14] is reported as > 79.4 µM (not active) and the EC50 [15] is reported as > 79.4 µM (inactive). For the same molecule, the EC50 [16] was > 79.4 µM (not active).

With NCCc1ccc(O)cc1 [TYRAMINE] the EC50 (cells [5]) was > 29.9 µM (inactive), the IC50 (cells [6]) was > 29.9 µM (inactive) and the AC50 (Cytochrome P450 2C19) was “inconclusive”. For the same molecule, the IC50 [7] was 0.882 µM (active) and the EC50 [8] was 0.178 µM (active).

In the case of CC(C)Oc1cc(NC(=O)C[S+]([O-])CC(=O)Nc2cccc(C(F)(F)F)c2)c(Cl)cc1Cl (configuration not stated), the EC50 [11] is reported as 3.23 µM (active).

In the case of CC[C@@H]([C@H](C)O)n1ncn(-c2ccc(N3CCN(c4ccc(OC[C@@H]5CO[C@@](Cn6cncn6)(c6ccc(F)cc6F)C5)cc4)CC3)cc2)c1=O, the IC50 [2] is reported as > 10 µM (inactive) and the IC50 [3] is reported as > 10 µM (inactive).

In the case of CC1SC(NC(=O)c2ccncc2)=NC1=O (configuration not stated), the EC50 (cells [17]) is reported as > 350 µM (not active) and the EC50 (cells [18]) is reported as > 350 µM (not active).

In the case of Cc1cc(C)cc(OCC(=O)Nc2ccc(N3CCCC3)cc2)c1, the IC50 [12] is reported as 7.74 µM (active), the IC50 (Coagulation factor XII) is reported as > 50 µM (inactive) and the IC50 (Estrogen receptor beta) is reported as 1.56 µM (active).

In the case of CCCCn1c(/C=N/Nc2nc3ccccc3[nH]2)nc2ccccc21, the EC50 (Streptococcus) is reported as 3.74 µM (active), the AC50 (INS1) is reported as 3.54 µM (active) and the EC50 [19] is reported as 1.66 µM (active). For the same molecule, the EC50 (cells [17]) was > 350 µM (not active) and the EC50 (cells [18]) was 43.7 µM (active).

With Cc1cccc(C)c1NC(=O)C(c1ccc(Cl)cc1Cl)N1CCCCC1 (configuration not stated) the EC50 [11] was 2.39 µM (active).

In the case of CCCCc1c(-c2ccccc2OC)ncn1CCc1cccc(F)c1, the EC50 (cells [5]) is reported as > 29.9 µM (inactive), the IC50 (cells [6]) is reported as 15.3 µM (inactive) and the IC50 [7] is reported as 4.33 µM (active). For the same molecule, the EC50 [8] was 2.73 µM (active).
